This note sets out measurements from publication PMC10396955, “2-Oxabicyclo[2.1.1]hexanes as saturated bioisosteres of the ortho-substituted phenyl ring” (Nature Chemistry, 2023).

In brackets after ≈: the same amount, converted by molar mass. Like-named read-outs stand apart in the source and are kept apart here.

In one series the test system is Fusarium oxysporum. The series is described as follows: Antifungal susceptibility testing (MIC, CLSI M38-A2 microdilution). The format is cell-based. The protocol: (§1) page 252: Antifungal susceptibility testing (determination of MIC values) The antifungal susceptibility tests were performed according to the Clinical and Laboratory Standards Institute (CLSI) […]-A2 protocol for mycelial fungi (1). Stock solutions were prepared by dissolving an appropriate amount of testing compounds in DMSO. Solutions of test compounds were added to the wells of a 96-well polystyrene microtiter plate (Colstar, USA) in the concentration range from 0.5 to 0.001 mg/mL. Mycelium growth was monitored photometrically at 490 nm by measuring the optical density of each well. Measurements were carried out two times: immediately after adding all components (RPMI 1640 broth, conidial suspension, test compound solutions) and after incubation plate at 26 °C for 48 h (2). MICs were the lowest testing compound concentrations that produced partial growth inhibition (50% of optical density relative to the control without testing compounds). The tests were performed in triplicate Results : Table S6. The MIC values of Fluxapyroxad , Boscalid , and their saturated analogues against Fusarium oxysporum , and Fusarium verticillioides Antifungal compaunds MIC, mg/mL Fusarium oxysporum Fusarium verticillioides Fluxapyroxad -* 0.250 Analogue (±)- 28 0.125 0.125 […] of 0.063 mg/mL. […]

For another series, the system named is Fusarium verticillioides. The series is described as above. It counts as cell-based. The protocol: as §1
Setting [1] is: Table S6, lowest concentration giving 50% of optical density relative to control, 26 °C, 48 h.
Where [2] appears, read: Fusarium verticillioides, 48 h, Table S6, lowest concentration giving 50% of optical density relative to control, 26 °C, 48 h, read-out: MIC.
Where [3] appears, read: Fusarium verticillioides, Fig. 4e, read-out: MIC.

As to `Cn1cc(C(=O)N[C@@H]2[C@@H]3CC[C@@]2(c2cc(F)c(F)c(F)c2)C3)c(C(F)F)n1` (relative stereo) [Compound 28], the MIC in the series with Fusarium oxysporum (Fig. 4e), in the series with Fusarium oxysporum (setting [1]), in the series with Fusarium verticillioides (setting [2]) and in the series on Fusarium verticillioides (setting [3]) was 125 µg/mL (≈ 324 µM) in each case.

For the molecule `Cn1cc(C(=O)N[C@@H]2[C@H]3C[C@]2(c2cc(F)c(F)c(F)c2)CO3)c(C(F)F)n1` (relative stereo) [Compound 29], in the series with Fusarium oxysporum (at a concentration of 0.125 mg/mL, MIC not reached, read-out: Maximal inhibition of growth), the inhibition at 125 µg/mL was 35.7 ± 2.4%. The MIC with Fusarium verticillioides (setting [2]) and in the series on Fusarium verticillioides (setting [3]) was 250 µg/mL (≈ 645 µM) in each case.

For `O=C(N[C@@H]1[C@@H]2CC[C@@]1(c1ccc(Cl)cc1)C2)c1cccnc1Cl` (relative stereo) [Compound 30], the MIC against Fusarium oxysporum (Fig. 4e) turned out to be 31 µg/mL (≈ 89.3 µM); with Fusarium oxysporum (setting [1]) it was 31 µg/mL (≈ 89.3 µM); against Fusarium verticillioides (Fig. 4e) it was 0.031 mg ml^–1; in the series on Fusarium verticillioides (setting [2]), 31 µg/mL (≈ 89.3 µM).

Consider `O=C(N[C@@H]1[C@H]2C[C@]1(c1ccc(Cl)cc1)CO2)c1cccnc1Cl` (relative stereo) [Compound 31], for which the melting point fell in the range of 147 to 148 °C. This molecule also displayed an MIC against Fusarium oxysporum (Fig. 4e) of 250 µg/mL (≈ 716 µM). This molecule returned an MIC in the series with Fusarium oxysporum (setting [1]) of 250 µg/mL (≈ 716 µM). Moreover, the inhibition at 250 µg/mL in the series with Fusarium verticillioides (Fusarium verticillioides, read-out: Maximal inhibition of growth) stood at 36.3 ± 1.9%.

Regarding `O=C(Nc1ccccc1-c1ccc(Cl)cc1)c1cccnc1Cl` [Boscalid, reference compound], the MIC against Fusarium oxysporum (Fig. 4e) and with Fusarium oxysporum (setting [1]) was 250 µg/mL (≈ 728 µM) throughout. Also, the inhibition at 63 µg/mL in the series on Fusarium verticillioides (Fusarium verticillioides, at a concentration of 0.063 mg/mL, MIC not reached, read-out: Maximal inhibition of growth) was found to be 39.2 ± 2.7%.

With `Cn1cc(C(=O)Nc2ccccc2-c2cc(F)c(F)c(F)c2)c(C(F)F)n1` [Fluxapyroxad, reference compound], the inhibition at 31 µg/mL in the series with Fusarium oxysporum (at a concentration of 0.031 mg/mL, MIC not reached, read-out: Maximal inhibition of growth) stood at 38 ± 1.9%. Besides, the MIC in the series with Fusarium verticillioides (setting [2]) and in the series with Fusarium verticillioides (setting [3]) was 250 µg/mL (≈ 656 µM) each time.
